In data set [1] the test system is ERK. Briefly: ERK activity in SNP treated chondrocytes. The class given is cell-based. The source says: (§1) In order to investigate the effect of ERK activity on the de-differentiation of chondrocytes induced by NO production, the change of ERK activity in SNP treated chondrocytes was detected. […] In order to increase the ERK activity by SNP, at least 0. […] The ERK activity inhibitor also restrained the inhibition of type-II collagen expression by SNP (FIG. 8C), and it blocked the decrease of proteoglycan synthesis induced by SNP (FIG. 8D).
(§2) For the activation of ERK, phosphorylation by MEK, the upstream signal transduction molecule of ERK, is required.

In data set [2] the test system is chondrocytes. Briefly: NO production in chondrocytes treated with SNP. The format is cell-based. The source says: In order to investigate the effect of NO produced in chondrocytes on the de-differentiation of chondrocytes, the present inventors treated the cells with […] (SNP), a NO donor, to induce No production.
The test system of data set [3] is chondrocytes. Briefly: NO (SNP) induced de-differentiation of chondrocytes (type-II collagen, proteoglycan). The format is cell-based.
Excerpt: as §1

In data set [4] the test system is MMP-9. The data set is described as follows: MMP-9 activity/expression by gelatin zymography in IL-1β treated articular cartilage cells. The class given is cell-based. The method, then: Particularly, articular cartilage cells were treated with 10 ng/ml of IL-1β according to the different times (0 minutes, ten minutes, thirty minutes, one hour, two hours, four hours, six hours, twelve hours, and 24 hours) and concentrations (0 ng/ml, 0.01 ng/ml , 0.1 ng/ml, 1 ng/ml, and 10 ng/ml), and culture supernatant was then obtained, followed by electrophoresis on the gel containing 2% gelatin. The separated gel was cultured at 37° C. for twelve hours, by which the decomposition of gelatin was induced by MMP-9. The remaining gelatin was stained for the confirmation of gelatin decomposition by MMP, based on which the MMP-9 activity was measured.

The subject of data set [5] is ERK. Briefly: ERK activity in IL-1β treated chondrocytes. The format is cell-based. The conditions noted are these: chondrocytes treated with IL-1β.
In data set [6] the test system is chondrocytes. The data set is described as follows: IL-1β induced NO production in chondrocytes (nitrite). The class given is cell-based. The method, then: Particularly, the amount of NO was determined by measuring the concentration of nitrite, a reaction product of NO, secreted after treating chondrocytes with IL1-β for 24 hours.
The test system of data set [7] is COX-2. Briefly: COX-2 expression in IL-1β treated chondrocytes (Western blotting). The class given is cell-based. The method, then: The present inventors have further investigated the relation between the inhibition of ERK activity and the expression of COX-2. Particularly, the inventors have confirmed with Western blotting the quantity of cox-2 protein expressed in chondrocytes after treating the cells with different concentrations of IL-1β for 24 hours.

Data set [8] has as its system SPF SD line rats. The data set is described as follows: Acute toxicity test in rat via non-oral administration. The class given is in vivo. The method, then:
Six-week old SPF SD line rats were used in the tests for acute toxicity. 2-(2-amino-3-methoxyphenol)-4H-1-benzopyran-4-one (PD98059) of the present invention was suspended in 0.5% methyl cellulose solution and intravenous injected once into two rats per group at dosages of 50, 30, and 10 mg/kg/15 ml. Death, clinical symptoms, and weight change in the rats were observed, hematological tests and biochemical tests of blood were performed, and abnormal signs in the gastrointestinal organs of chest and abdomen were observed visually during autopsy.

Data set [9] has as its system limb bud mesenchymal cells of chicken embryo. The data set is described as follows: Differentiation of mesenchymal cells to chondrocytes (alcian blue staining, type-II collagen Western blot). The format is cell-based. The method, then:
(§3) The present inventors have observed the differentiation process of chondrocytes using limb bud mesenchymal cells of Hamburger-Hamilton stage 24-25 chicken embryo under micromass culture (FIG. 1A). Particularly, mesenchymal cells were suspended in Ham's F-12 medium (Gibco BRL, Gaithersburg, Md., USA) supplemented with 10% fetal bovine serum (2×10^7 cells/ ml). The cell suspension was loaded onto culture dish (15 μl/spot) and cultured at 37° C. for two hours in order to fix the cells on the dish. The cells were further cultured in the Ham's F-12 medium containing 10% FBS, 50 μg/ml streptomycin, and 50 units/ml penicillin.
As a result, when mesenchymal cells were micromass cultured for five days, the synthesis of type-II collagen, a characteristic of chondrocytes, began to take place from the third day of culturing, which was confirmed by Western blotting using an antibody implying that the differentiation of chondrocytes was progressed. The accumulation of sulfated proteoglycan was also confirmed through alcian blue staining to be increased, which also implied that the differentiation of chondrocytes began from the third day of culturing and completed on the fifth day (FIG. 2A).
The present inventors have confirmed the effect of ERK activity inhibition on the differentiation of chondrocytes. […]

In data set [10] the test system is ERK. The data set is described as follows: ERK activity in serially monolayer-cultured articular chondrocytes. The class given is cell-based, rabbit. Conditions: 20 μM, chondrocytes of each passage, two additional days. The source says: In order to confirm the de-differentiation and degeneration of chondrocytes, the present inventors have performed consecutively monolayer culture with articular chondrocytes of a two- to four-week-old rabbit (FIG. 1B). Particularly, articular cartilage of the rabbit was thin-sectioned aseptically, and the articular fragments were then reacted in PBS containing 0.2% collagenase type-II (Sigma) for six hours. Through quick-centrifugation, single cells were obtained. The single cells were suspended in DMEM (Dulbecco 's modified Eagle's medium, Gibco BRL, Gaithersburg, Md., USA) containing 10% FBS, 50 μg/ml streptomycin, and 50 units/ml penicillin and were plated onto a culture-dish at a density of 5×10^4 cells/cm^2 and cultured at 37° C. The medium was changed every other day. Five days later, the culture dish was filled with grown-up cells, which were identified as P0. Those cells were subcultured at the concentration of 5×10^4 cells/cm^2 per culture dish. […]
In order to ascertain the effect of ERK activity on the de-differentiation of chondrocytes, rabbit articular cartilage cells were cultured at the density of 5×10^4 cells/cm^2 on a culture dish. […] The expression of type-II collagen was analyzed by Western and Northern blotting, resulting in the highest expression in, P0, beginning to decrease in P1 and almost no expression after P3 (FIG. 4A). […]

In data set [11] the test system is P0 and P2 chondrocytes. Briefly: Immunostaining of type-II collagen in P0 and P2 chondrocytes. The class given is cell-based, rabbit. Conditions: 20 μM, two days, immunofluorescence. The method, then:
In order to examine the suppression of de-differentiation by the inhibition of ERK activity, the expression of collagen was observed by immunostaining. Particularly, 20 μM of ERK activity inhibitor 2-(2-amino-3-methoxyphenol)-4H-1-benzopyran-4-one (PD98059) was added into P0 and P2 chondrocytes, and the cells were then cultured for two days. The cultured cells were fixed with 3% parpformaldehyde for ten minutes and some parts of the cell membranes were disrupted by 0.2% X-100. Next, anti-type II collagen antibody (10 μg/ml) was added thereto and continued to culture thereof for one hour.

In data set [12] the test system is rabbit articular chondrocytes. Briefly: De-differentiation of articular chondrocytes in serial monolayer culture (type-II collagen, proteoglycan synthesis). The format is cell-based. Conditions: two days; for expression of type-II collagen: 20 μM. The source says:
In order to confirm the de-differentiation and degeneration of chondrocytes, the present inventors have performed consecutively monolayer culture with articular chondrocytes of a two- to four-week-old rabbit (FIG. 1B). Particularly, articular cartilage of the rabbit was thin-sectioned aseptically, and the articular fragments were then reacted in PBS containing 0.2% collagenase type-II (Sigma) for six hours. Through quick-centrifugation, single cells were obtained. The single cells were suspended in DMEM (Dulbecco 's modified Eagle's medium, Gibco BRL, Gaithersburg, Md., USA) containing 10% FBS, 50 μg/ml streptomycin, and 50 units/ml penicillin and were plated onto a culture-dish at a density of 5×10^4 cells/cm^2 and cultured at 37° C. The medium was changed every other day. Five days later, the culture dish was filled with grown-up cells, which were identified as P0. Those cells were subcultured at the concentration of 5×10^4 cells/cm^2 per culture dish. The cells were continuously subcultured whenever they were fully grown to fill the dishes and were identified as P1 and next P2. Subculture was finished when P6 phase was completed. […] It was also confirmed by alcian blue staining that the accumulation of glycosaminoglycan sulfide was decreased as the subculture was continued. The de-differentiation and degeneration of chondrocytes were also disclosed by observing the shape of chondrocytes, which was changed from their distinguished round shape to fibroblast shape, a characteristic of degenerated chondrocytes (FIG. 2B).
In order to ascertain the effect of ERK activity on the de-differentiation of chondrocytes, rabbit articular cartilage cells were cultured at the density of 5×10^4 cells/cm^2 on a culture dish. The cells began to proliferate on the second day of culture and reached saturation on the fifth day. The cells in saturation point were designated as P0. The cells in P0 stage had typical round or polygonal shapes, but these forms changed into flat and fibroblast-like shapes while the cells were going through P6 stage by serial monolayer culture (FIG. 2B). The expression of type-II collagen was analyzed by Western and Northern blotting, resulting in the highest expression in, P0, beginning to decrease in P1 and almost no expression after P3 (FIG. 4A). […] Therefore, it was confirmed that the ERK activity was in inverse proportion to the expression of type-II collagen, which means the ERK activity plays an important role in the de-differentiation process.
To determine the relations between ERK activity and de-differentiation, the cells under subculturing were treated with 2-(2-amino-3-methoxyphenol)-4H-1-benzopyran-4-one (PD98059), an ERK activity inhibitor, and the synthesis of collagen and proteoglycan was observed. […]

Data set [13] relates to ERK. The data set is described as follows: ERK activity (Western blot, phosphorylated ERK-specific antibody) in micromass-cultured mesenchymal cells. The format is cell-based, chicken. The conditions noted are these: mesenchymal cells treated with PD98059, micromass culture. The method, then: as §3
The present inventors have confirmed the effect of ERK activity inhibition on the differentiation of chondrocytes. Particularly, the present inventors have investigated how the differentiation was influenced by the change and the inhibition of ERK activity during the differentiation process of chondrocytes induced by micromass culture of mesenchimal cells (FIG. 2A and Example 1-1). […] Therefore, it was confirmed that the decrease of ERK activity was required for the differentiation from mesenchimal cells to chondrocytes; that is, the differentiation of chondrocytes was stimulated by the inhibition of ERK activity.
as §2
In general terms: Immunoblotting shows a protein as a band on a membrane.

The mark [14] stands for this setting: single intravenous injection, 50, 30 and 10 mg/kg/15 ml.

Entries after “also recorded” stand apart in the source; their conditions may differ.

For `CC(=O)N[C@H](C(=O)O)C(C)(C)SN=O` [SNP, S-nitroso-N-acetyl penicillamine], the “ERK activity, time course” value in data set [1] (1 mM SNP) is “began to increase three hours after the treatment and reached the highest activity twelve hours later”. Moreover, the “SNP concentration required to increase the ERK activity” value in data set [1] (chondrocytes) is recorded as “at least 0. 5 mM”. Also, the NO production entry in [2] is reported as “in proportion to the concentration”. For the same compound, the “expression of type-II collagen” value was “started to decrease” in data set [3] (0.1 mM SNP, 24 hours); “began to decrease” in data set [3] (1 mM SNP, 12 hours); “totally suppressed” in [3] (1 mM SNP, 24 hours). Also, the synthesis of proteoglycan result in [3] (SNP treated chondrocytes) was “decreased depending on the concentration”.
For IL-1β: an inflammatory cytokine, in [4] (IL-1β 0-10 ng/ml, gelatin zymography), the “expression of MMP-9” value was “largely increased depending on the concentration”. For the same compound, the ERK activity result in data set [5] is “temporarily increased at the early stage”. In [6] (chondrocytes treated with IL-1β), the NO production entry was “stimulates NO production in a dose-dependent manner”. In addition, the “expression of cox-2” value in [7] (different concentrations of IL-1β, 24 hours) is given as “increased depending on the concentration”.
Regarding `COc1cccc(-c2cc(=O)c3ccccc3o2)c1N` [PD98059, 2-(2-amino-3-methoxyphenol)-4H-1-benzopyran-4-one], in [4] (10 μM PD98059, IL-1β treated chondrocytes), the “expression of MMP-9” value is on record as “suppressed”. In addition, the “level not causing any toxic change” value in data set [8] (single intravenous injection) was at most 50 mg/kg. Further, in data set [8] (setting [14]), the “clinical symptoms, weight change, death” value is reported as “did not cause any specific clinical symptoms, weight change, or death”. Besides, the “hematological tests, biochemical tests of blood, autopsy” value in data set [8] (setting [14]) is reported as “No change was observed”. The “synthesis of proteoglycan (alcian blue staining)” value in [9] (mesenchymal cells treated with PD98059) is recorded as “remarkably increased; also recorded: largely increased”. For the same compound, the “expression of type-II collagen” value in data set [9] (mesenchymal cells treated with PD98059, Western blot) was “also increased”; in data set [12] (P0 cells) it was “largely increased”; in data set [12] (P2 cells) it was “turned to express again”. In addition, the ERK activity result in data set [10] was “suppressed”; in data set [1] (20 μM PD98059, SNP treated chondrocytes), “totally restrained”. For the same compound, the “numbers of type-II collagen expressed cells” value was “remarkably increased” in [11] (P0 cells) and “greatly increased” in [11] (P2 cells). Besides, the “NO production caused by IL-1β” value in data set [6] (5 μM PD98059, IL-1β for 24 hours, nitrite) was “completely inhibited”. In data set [3] (PD98059 with SNP), the “decrease of proteoglycan synthesis induced by SNP” value is listed as “blocked”. The “inhibition of type-II collagen expression by SNP” value in [3] (PD98059 with SNP) is listed as “restrained”. Besides, the “increase of synthesis of proteoglycan by a factor (alcian blue staining)” value amounted to 2.6 in data set [12] (P0, 20 μM) and 6.4 in data set [12] (P2, 20 μM). In addition, the “expression of cox-2” value in data set [7] (5 μM PD98059, IL-1β for 24 hours) was “completely suppressed”. For the same compound, in data set [13], the “activity of ERK” value is reported as “decreased in a dose-dependent manner”.
